The record followed here is patent US20140123342A1, “Regulation of Stomatal Apertures by Apyrases and Extracellular Nucleotides” (BOARD OF REGENTS, THE UNIVERSITY OF TEXAS SYSTEM, priority 2011, published 2014).

Assay type in all cases: cell-based, Arabidopsis thaliana
In experiment [1] the test system is stomata (guard cells) in epidermal peels. Description: Stomatal aperture closure studies, epidermal peels in the light. Conditions: 10 μM, epidermal peels, light, 1 h. The method, then:
(§1) Stomatal Aperture Studies: Arabidopsis thaliana ecotypes Columbia (Col-0) and Wassilewskija (WS) were used as wild types in this study. Col-0, nia1nia2, atrbohD/F, R2-4A and WS plants were all grown on autoclaved Metro-Mix 200 soil at 22° C. under continuous light. The mutant seeds nia1nia2 nia2-5; CS 2356; Col-0 background) were obtained from Dr. N. M. Crawford (University of California at San Diego) and the mutant seeds atrbohD/F (Col-0 background) were obtained from Dr. J. M. Kwak (University of Maryland). The RNAi mutant apyrase line (R2-4A) is in WS background, so WS ecotype was used as the control wild type for these studies. Leaves from 2 to 3 week old Col-0 plants, or R2-4A and WS plants treated with 4 μM estradiol for 1 week after development of mature basal leaves were used for peel and whole leaf studies. Plants were placed in the dark and watered 24 h before an study. For opening studies, plants were used immediately after 24 h dark treatment and all treatments were done in the dark except for the light treated leaves or peels, thus the control stomata are dark controls. For closure studies, plants were placed in the light 3 h before an study to induce stomatal opening and all treatments were done in the light, thus the control stomata are light controls. For peel studies, epidermal peels were made from the underside of the leaf and treatments were applied to the peels for 1 h. For whole leaf studies, leaves were removed and treatments were applied for 2 h. For each treatment, about 3 or 4 peels collected from different leaves or 3 or 4 different leaves of at least two different plants were floated with the abaxial side up in petri dishes on 3 mL of Arabidopsis leaf buffer consisting of 10 mM KCl, 25 mM MES pH 6.15 (Melotto et al., 2006) and the chemical being tested. For whole leaf studies peels were collected after the treatment.
(§2) For studies testing the effects of ATPγS, ADPγS, AMPS, RB2, and PPADS (Sigma, St. Louis, Mo., USA) 20 mM stocks were made by dissolving the compounds in de-ionized water. For studies testing the effects of apyrase inhibitors, 7.5 mg/mL of NGXT191 and of inhibitor #13 (Windsor et al., 2002) was dissolved in dimethyl sulfoxide (DMSO) and then applied at a dilution of […] for a final concentration of 0.1% DMSO. ABA (Sigma, St. Louis, Mo., USA) was dissolved in ethanol in 10 mM stocks and then applied at a dilution of 1:1000. The stocks were stored at −20° C. while not in use. The production of the anti-AtAPY1 antibodies used is described by Steinebrunner et al. (2003). The crude immune and pre-immune sera were purified using protein A-Sepharose following the protocol described by Martin (1982) with the slight modification that the buffers used were azide-free. The protein-A purified sera were both used at a 1:1000 dilution in leaf stomatal aperture studies. The concentration of the immune and pre-immune sera, determined by Bradford assay (Bio-Rad), was 10.2 μg/mL and 7.7 μg/mL, respectively.
(§3) After treatment, photos of stomata were taken using a light microscope at 20×. Stomatal aperture width was measured using the image processing software ImageJ. Typically, photos were taken of 70 to 90 stomata per treatment of which only 50 stomata were measured for each treatment. For each treatment the ratio of closed stomata (width of 0) to open stomata was determined for all stomata imaged and this ratio was maintained in the 50 stomata that were measured for each treatment. Data shown uses apertures determined as width/length, however data in all studies also obtained as width only and generally width/length and width only data are in agreement with each other. Statistical significance of the measurements for the treatments was determined using the Student's t test in Microsoft Excel.

Experiment [2] concerns stomata (guard cells) in whole leaves. Description: Stomatal aperture closure studies, whole leaves in the light. Conditions: 10 μM, 2 h. The method, then: as §1, §2, §3
The test system of experiment [3] is stomata of nia1nia2 mutant leaves. Description: Stomatal closing studies with whole leaves of nia1nia2 mutant. Conditions: 10 μM. On the procedure: Stomatal Aperture Studies: Arabidopsis thaliana ecotypes Columbia (Col-0) and Wassilewskija (WS) were used as wild types in this study. Col-0, nia1nia2, atrbohD/F, R2-4A and WS plants were all grown on autoclaved Metro-Mix 200 soil at 22° C. under continuous light. The mutant seeds nia1nia2 nia2-5; CS 2356; Col-0 background) were obtained from Dr. N. M. Crawford (University of California at San Diego) and the mutant seeds atrbohD/F (Col-0 background) were obtained from Dr. J. M. Kwak (University of Maryland). The RNAi mutant apyrase line (R2-4A) is in WS background, so WS ecotype was used as the control wild type for these studies. […]
as §3, with “Statistical significance of the measurements for the treatments was determined using the Student's t test in Microsoft Excel.” left out

On to `CC1=CC(=O)CC(C)(C)[C@@]1(O)/C=C/C(C)=C\C(=O)O` [ABA, abscisic acid], for which the “effect on stomatal aperture” value was “induced stomatal closure” in experiment [1]; “caused closure” in experiment [2] (both estradiol-treated WS wild-type and R2-4A plants); “induced stomatal closure” in experiment [2] (whole leaves, light); “no effect on stomatal aperture” in experiment [3].
